Data: ChEMBL document CHEMBL1148812, “4-[omega-[4-arylpiperazin-1-yl]alkoxy]phenyl)imidazo[1,2-a]pyridine derivatives: fluorescent high-affinity dopamine D3 receptor ligands as potential probes for receptor visualization” (J Med Chem, 2007)

How the values were obtained:
[1] = target: D(3) dopamine receptor (Homo sapiens, UniProt P35462)
Description: Displacement of [3H]spiroperidol from human cloned dopamine D3 receptor

[2] = target: T1, D(2) dopamine receptor (Homo sapiens, UniProt P14416)
[3] = target: T1, D(2) dopamine receptor; experiment: Displacement of [3H]spiroperidol from human cloned dopamine D2L receptor at 10 uM

D(3) dopamine receptor, sequence (P35462 whole entry): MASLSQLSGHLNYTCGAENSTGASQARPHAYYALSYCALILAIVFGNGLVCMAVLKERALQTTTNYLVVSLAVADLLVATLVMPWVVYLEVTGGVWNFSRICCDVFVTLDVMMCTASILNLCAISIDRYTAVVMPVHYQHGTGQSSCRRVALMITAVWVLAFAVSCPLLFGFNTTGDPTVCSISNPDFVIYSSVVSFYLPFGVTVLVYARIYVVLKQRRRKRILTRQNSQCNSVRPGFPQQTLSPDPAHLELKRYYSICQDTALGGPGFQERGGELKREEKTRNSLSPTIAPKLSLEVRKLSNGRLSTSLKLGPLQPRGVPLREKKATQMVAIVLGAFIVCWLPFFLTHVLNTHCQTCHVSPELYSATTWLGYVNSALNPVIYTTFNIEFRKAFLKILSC
T1 sequence (P14416 whole entry): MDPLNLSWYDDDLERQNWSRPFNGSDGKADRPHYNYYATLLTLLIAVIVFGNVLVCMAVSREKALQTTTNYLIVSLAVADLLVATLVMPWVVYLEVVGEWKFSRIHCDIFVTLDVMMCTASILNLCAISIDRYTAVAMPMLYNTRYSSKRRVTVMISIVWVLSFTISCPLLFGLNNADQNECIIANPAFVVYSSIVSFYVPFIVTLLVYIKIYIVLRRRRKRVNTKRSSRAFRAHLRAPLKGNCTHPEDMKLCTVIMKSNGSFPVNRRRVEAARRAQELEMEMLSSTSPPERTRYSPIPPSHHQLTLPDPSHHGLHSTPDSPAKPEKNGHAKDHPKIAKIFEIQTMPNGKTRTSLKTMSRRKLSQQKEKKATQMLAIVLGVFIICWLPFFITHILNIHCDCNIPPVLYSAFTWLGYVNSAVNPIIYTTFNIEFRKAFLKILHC

Row | Structure (SMILES) | Ki [1] | Ki [2] | inhibition [3]
1 | COc1ccccc1N1CCN(CCCOc2ccc(-c3cn4cc(C)ccc4n3)cc2)CC1 | 176 nM | 78 nM | 
2 | Cc1cccn2cc(-c3ccc(OCCCCN4CCN(c5cccc(Cl)c5Cl)CC4)cc3)nc12 | 54.4 nM | 560 nM | 
3 | Clc1cccc(N2CCN(CCCOc3ccc(-c4cn5ccccc5n4)cc3)CC2)c1Cl | 156 nM | 44 nM | 
4 | Cc1ccn2cc(-c3ccc(OCCCCN4CCN(c5cccc(Cl)c5Cl)CC4)cc3)nc2c1 | 60 nM | 111 nM | 
5 | COc1ccccc1N1CCN(CCCCOc2ccc(-c3cn4cccc(C)c4n3)cc2)CC1 | 385 nM | 159 nM | 
6 | COc1ccccc1N1CCN(CCCOc2ccc(-c3cn4ccc(C)cc4n3)cc2)CC1 | 71 nM | 78 nM | 
7 | Cc1ccn2cc(-c3ccc(OCCCN4CCN(c5cccc(Cl)c5Cl)CC4)cc3)nc2c1 | 8 nM | 83 nM | 
8 | COc1ccccc1N1CCN(CCCCOc2ccc(-c3cn4cc(C)ccc4n3)cc2)CC1 | 146 nM | 47 nM | 
9 | COc1ccccc1N1CCN(CCCOc2ccc(-c3cn4ccccc4n3)cc2)CC1 | 1.6 nM | 49 nM | 
10 | Cc1cccn2cc(-c3ccc(OCCCN4CCN(c5cccc(Cl)c5Cl)CC4)cc3)nc12 | 225 nM | 125 nM | 
11 | COc1ccccc1N1CCN(CCCOc2ccc(-c3cn4cccc(C)c4n3)cc2)CC1 | 50 nM | 49 nM | 
12 | Clc1cccc(N2CCN(CCCCOc3ccc(-c4cn5ccccc5n4)cc3)CC2)c1Cl | 38 nM | 68 nM | 
13 | COc1ccccc1N1CCN(CCCCOc2ccc(-c3cn4ccc(C)cc4n3)cc2)CC1 | 40 nM | 52 nM | 
14 | COc1ccccc1N1CCN(CCCCOc2ccc(-c3cn4ccccc4n3)cc2)CC1 | 0.72 nM | 179 nM | 
15 | Cc1ccc2nc(-c3ccc(OCCCN4CCN(c5cccc(Cl)c5Cl)CC4)cc3)cn2c1 | 28.9 nM |  | 31%
16 | Cc1ccc2nc(-c3ccc(OCCCCN4CCN(c5cccc(Cl)c5Cl)CC4)cc3)cn2c1 | 8 nM | 149 nM | 
